Measured values as given in patent US20220348565A1, “PHARMACEUTICAL COMPOUNDS” (SENTINEL ONCOLOGY LIMITED, priority 2019, published 2022).

Assays:
[1] = system: wild-type KRAS HeLa cells; assay: HeLa cell viability, wild-type KRAS transgene, Cell Titre Blue; format: cell-based; details: 72 hours, listed as A-3, read-out: WT GI50
Protocol: (§1) Atropisomers A-1, A-2, A-3 and A-4 were tested on HeLa cells engineered to inducibly express wild-type or oncogenic KRasG12V transgenes using the FLP-in/T-Rex system (Invitrogen). Cells were plated, and then treated with or without Doxycycline to induce transgene expression, and then treated with serially-diluted PBD inhibitors. After 72 hours of incubation, cell viability was assessed using the Cell Titre Blue reagent (Promega) and a BMG Pherastar plate reader. The effect of PBD inhibition on cell viability with either wild-type or oncogenic G12V KRAS was assessed using GraphPad Prism.
(§2) From the results obtained by following the above protocol, the GI50 values against the wild-type and KRAS G12V HeLa cell line of each of the atropisomers were determined as shown in Table 12.

HeLa cells = assay: Cells in mitosis (phospho-histone H3, mitotic index), HeLa; format: cell-based; details: Homo sapiens, % mitotic cells (phospho-histone H3), 24 hours
Text: (§3) Inhibiting the ability of PLK1 and PLK4 to bind to their partners through their PBDs is known to cause cells to arrest in mitosis. Experimentally, this can be measured by assessing the number of cells which are in mitosis at a certain time after treatment with a test compound by immunofluorescent detection of phosphorylated Histone H3 (pH3), a mark which is only present in mitotic cells. PLK1/4-PBD inhibitors are expected to cause a dose-dependent increase in pH3-positive cells, which is reported as Mitotic Index (MI)—the percentage of cells which, at a given time, are positive for this mitotic mark.
(§4) The following protocol was used to measure the effects of atropisomer A-2 and atropisomer A-3 on arresting cells in mitosis.
(§5) Cells were plated at 10 000/well in 96-well plates and incubated overnight. The following day atropisomer A-2 stocks in DMSO were diluted in medium then added to cells with a maximum final DMSO concentration on cells of 0.2%. Cells were incubated with the compound for 24 hours then fixed in 3.7% formaldehyde. Cells were permeabilised with 0.1% Triton X-100 then incubated with anti-phospho-histone H3 (Ser10) antibody (Abcam). The cells were washed with PBS then incubated with AlexaFluor 488 labelled goat anti-rabbit IgG (Invitrogen) in the presence of 4 ug/mL Hoechst 33342 (Invitrogen). […]

U87MG cells [2] = assay: Cells in mitosis (phospho-histone H3, mitotic index), U87MG; format: cell-based; details: Homo sapiens, U-87 MG; % mitotic cells (phospho-histone H3), 24 hours
Text: as §3, §4, §5

[3] = Mouse PK, plasma after i.v. and p.o. dosing (oral bioavailability); format: in vivo, Male CD-1 mice; details: for half-life: read-out: T ½ (converted)
Protocol: (§6) Atropisomers A-2 and A-3 were evaluated in an in vivo mouse model to determine brain and plasma concentrations following p.o. and i.v. dosing.
(§7) Male CD-1 mice were dosed with the compounds of Examples A-2 and A-3, either by i.v. administration (2 mg/kg) or by p.o. administration (10 mg/kg). Eight samples were taken for analysis in the i.v. leg at 2, 10, 30 min, 1, 2, 4, 8, and 24 (for i.v) and 9 samples in the p.o. leg at 15, 30 min, 1, 2, 4, 8, 24, 48 and 72 hrs.
(§8) The compounds of Examples A-2 and A-3 were both formulated in 10% DMSO/90% hydroxypropyl-beta-cyclodextrin (20% w/v in water) for i.v. and p.o. dosing. N =3 mice per time point.
(§9) Post dosing, terminal blood samples were taken from individual animals and delivered into labelled polypropylene tubes containing anticoagulant (EDTA). The samples were held on wet ice for a maximum of 30 min while sampling of all the animals in the cohort was completed. The blood samples were centrifuged for plasma (4° C., 21100 g for 5 min) and the resulting plasma transferred into corresponding labelled tubes. Terminal brains from each PO dosed animal were excised, rinsed with saline and placed into pre-weighed labelled polypropylene tubes and the samples re-weighed prior to storage.
(§10) Quantitative bioanalysis was carried out using liquid chromatography—mass spectroscopy was performed. The results are shown in Tables 14, 15 and 16 below and in FIGS. 12 to 15.

U87MG cells [4] = assay: U87MG human glioblastoma cell viability, SRB assay, 72 hours; format: cell-based; details: listed as A-3
Protocol: The following protocol was used to measure the effects of compounds of the invention on U87MG cell viability.
U87MG cells were grown in their recommended growth media/supplements (ATCC). Cells were seeded at a concentration of 5000 cells per well into 96 well plates overnight at 37° C., 5% CO2. Cells were treated with relevant concentrations of test compound for 72 hours. After 72 hours incubation, viability was established using sulforhodamine B (SRB) colorimetric assay. Percentage viability was calculated against the mean of the DMSO treated control samples, and IC50 values for inhibition of cell growth were calculated using GraphPad Prism software by nonlinear regression (4 parameter logistic equation).

KRAS G12V HeLa cell line = assay: HeLa cell viability, oncogenic KRasG12V transgene, Cell Titre Blue; format: cell-based; details: KRAS G12V HeLa cells, 72 hours; listed as A-3
Protocol: as §1, §2

[5] = Mouse PK, brain exposure after p.o. dosing; format: in vivo, Male CD-1 mice
Protocol: as §6, §7, §8, §9, §10

[6] = mouse, 2 mg/kg, 2 mq/Kq IV, male CD-1 mice, plasma
[7] = mouse, 10 mg/kg, 10 mq/Kq PO, male CD-1 mice, plasma
[8] = mouse, po, brain exposure, p.o. 10 mg/kg, male CD-1 mice

GI50 [1]: 4.68 nM
EC50 (HeLa cells): 30 nM
EC50 (U87MG cells [2]): 100 nM
CI ([3]; 2 mq/Kq IV, male CD-1 mice, plasma): 16.8 mL/min/kg
F ([3]; 10 mq/Kq PO vs 2 mq/Kq IV, male CD-1 mice): 70%
AUC(0-inf) [3, 6]: 1990 ng·h/mL
Cmax [3, 6]: 274 ng/mL
half-life [3, 6]: 8.4 h
AUC(0-inf) [3, 7]: 6920 ng·h/mL
Cmax [3, 7]: 322 ng/mL
half-life [3, 7]: 8.3 h
AUC(0-t) ([3]; mouse, po, plasma, p.o. 10 mg/kg, male CD-1 mice, read-out: AUClast plasma): 6920 ng·h/mL
oral absorption / oral bioavailability (in words) ([3]; oral dosing in mice): highly absorbed
IC50 (U87MG cells [4]): 150 nM
GI50 (KRAS G12V HeLa cell line): 2.6 nM
Cmax [5, 8]: 604 ng/mL
Tmax [5, 8]: 8 h
half-life ([5]; mouse, po, brain exposure, p.o. 10 mg/kg, male CD-1 mice, read-out: T ½ (converted)): 8.2 h
AUC(0-t) ([5]; mouse, po, brain, p.o. 10 mg/kg, male CD-1 mice, read-out: AUClast brain): 14100 ng·h/mL
brain exposure (in words) ([5]; oral dosing in mice): high brain exposure
Compound: CN(C)CCNC(=O)c1ccc(-c2ccc(-c3ccc(Cl)cc3)n2-c2ccccc2C(F)(F)F)nc1 (single isomer, unassigned) [Atropisomer A-3, 6-[5-(4-chlorophenyl)-1-[2-(trifluoromethyl)phenyl]pyrrol-2-yl]-N-[2-(dimethylamino)ethyl]pyridine-3-carboxamide]
